Like-named read-outs stand apart in the source and are kept apart here.
Assays:
[1] = tested on: S. aureus MW2 24 h established biofilm; settings: 24 h treatment
Procedure: 346 plated onto TSA plates, and incubated plates at 37°C overnight. The next day, we counted the
347 viable bacterial colonies.
We used TSB medium containing
356 bacteria with water as the positive control, while TSB media with sterile water served as the
357 negative control. After incubation, we carefully removed the TSB medium and washed the wells
358 with PBS (Gibco, MD, USA) to remove loosely attached planktonic cells. We quantified the
359 biomass by staining the biofilms with crystal violet following an established protocol and
360 quantitated the concentration of peptide that inhibits 50% of biofilm formation (MBIC50)(8). We
361 measured the live cell count of the biofilms using XTT dye [2,3-bis(2-methyloxy-4-nitro-5-
362 sulfophenyl)-2H-tertazolium-5-carboxanilide] (ATCC, VA, USA). We calculated the percentage
363 of biofilm growth by normalizing to biofilm growth in wells containing bacteria without peptide
366 Disruption of S. aureus MW2 established biofilms
367 We evaluated the ability of the citropin 1.1-derived peptides to disrupt established biofilms
368 following an established protocol with modifications (5). We prepared exponential cultures of S.
369 aureus MW2 (adjusted to 1 × 10^6 CFU/ml) in TSB medium (supplemented with 0.2% glucose)
370 from overnight grown cultures. We added 100 µl of bacterial culture to flat-bottomed 96-well
371 polystyrene microtiter plates (Cat no. 3595, Corning, NY, USA). We then incubated the plates at
372 37°C for 24 hours in static conditions to allow biofilm formation. After incubation, we carefully
373 pipetted out the TSB medium and washed the wells with PBS (Gibco, MD, USA) to remove
374 loosely attached planktonic cells. We treated the established biofilms in each well with 10 µl of
375 serially diluted 10× peptide solution, followed by the addition of 90 μl TSB medium
376 (supplemented with 0.2% glucose). We incubated the plates for another 24 h at 37°C before
377 processing biomass and live-cell contents. We calculated the concentration of peptide that disrupts
378 50% of established biofilms (MBEC50).

S. aureus MW2 = assay: ATP release assay (luciferase); assay type: cell-based, Staphylococcus aureus; settings: 32 μg/mL, 30 minutes
Procedure: 484 min at room temperature in the dark based on a previously established protocol (8). We added 90
485 µl of the dye/bacteria mixture to 10 μl of serially diluted 10× peptide concentration in black, 96-
486 well plates (Cat. no. 3904, Corning, NY, USA) and incubated the plates for 1 hour at room
487 temperature. We measured the fluorescence with excitation and emission wavelengths of 485 nm
488 and 525 nm, respectively in endpoint assay mode using a SpectraMax i3x (Molecular Devices,
489 CA, USA) fluorescence reader.
490 Propidium iodide-based membrane permeability
491 We used a propidium iodide (Thermo Fisher Scientific, MA, USA) fluorescence-based
492 bacterial permeation assay to establish membrane-oriented interactions with the designed peptides
493 based on a previously established protocol (8). We prepared exponential phase S. aureus MW2
494 bacteria and diluted to OD600 = 0.4 in PBS. We added PI dye (final concentration = 2 µM) to the
495 bacteria in 1:10 serial dilutions in black, 96-well plates (Cat. no. 3904, Corning, NY, USA) and
496 incubated the plates for 1 hour at room temperature. We then measured the fluorescence with an
497 excitation wavelength of 584 nm and an emission wavelength of 620 nm in endpoint assay mode
498 using a SpectraMax i3x (Molecular Devices, CA, USA) fluorescence reader.
501 To determine the ATP leakage potential of the peptides, we employed a luciferase-based […]

H-GLFKVIKKLLKVI-NH2 [CIT-8]
Established biofilm, biomass (crystal violet), percentage of untreated ([1]; 4 μg/ml, replicate 1): 131.685
Established biofilm, live-cell viability (XTT), percentage of untreated ([1]; 4 μg/ml, replicate 1): 82.5027
Established biofilm, biomass (crystal violet), percentage of untreated ([1]; 4 μg/ml, replicate 2): 134.586
Established biofilm, live-cell viability (XTT), percentage of untreated ([1]; 4 μg/ml, replicate 2): 94.0114
Established biofilm, biomass (crystal violet), percentage of untreated ([1]; 4 μg/ml, replicate 3): 61.6564
Established biofilm, live-cell viability (XTT), percentage of untreated ([1]; 4 μg/ml, replicate 3): 89.5709
Established biofilm, biomass (crystal violet), percentage of untreated ([1]; 8 μg/ml, replicate 1): 62.9601
Established biofilm, live-cell viability (XTT), percentage of untreated ([1]; 8 μg/ml, replicate 1): 83.9897
Established biofilm, biomass (crystal violet), percentage of untreated ([1]; 8 μg/ml, replicate 2): 123.287
Established biofilm, live-cell viability (XTT), percentage of untreated ([1]; 8 μg/ml, replicate 2): 89.9036
Established biofilm, biomass (crystal violet), percentage of untreated ([1]; 8 μg/ml, replicate 3): 70.3988
Established biofilm, live-cell viability (XTT), percentage of untreated ([1]; 8 μg/ml, replicate 3): 92.7553
Established biofilm, biomass (crystal violet), percentage of untreated ([1]; 16 μg/ml, replicate 1): 49.8211
Established biofilm, live-cell viability (XTT), percentage of untreated ([1]; 16 μg/ml, replicate 1): 6.002
Established biofilm, biomass (crystal violet), percentage of untreated ([1]; 16 μg/ml, replicate 2): 67.6508
Established biofilm, live-cell viability (XTT), percentage of untreated ([1]; 16 μg/ml, replicate 2): 15.664
Established biofilm, biomass (crystal violet), percentage of untreated ([1]; 16 μg/ml, replicate 3): 56.1605
Established biofilm, live-cell viability (XTT), percentage of untreated ([1]; 16 μg/ml, replicate 3): 21.3742
Established biofilm, biomass (crystal violet), percentage of untreated ([1]; 32 μg/ml, replicate 1): 28.3231
Established biofilm, live-cell viability (XTT), percentage of untreated ([1]; 32 μg/ml, replicate 1): 9.9063
Established biofilm, biomass (crystal violet), percentage of untreated ([1]; 32 μg/ml, replicate 2): 39.7878
Established biofilm, live-cell viability (XTT), percentage of untreated ([1]; 32 μg/ml, replicate 2): 2.777
Established biofilm, biomass (crystal violet), percentage of untreated ([1]; 32 μg/ml, replicate 3): 32.068
Established biofilm, live-cell viability (XTT), percentage of untreated ([1]; 32 μg/ml, replicate 3): 4.02
Concentration killing 50% of live cells in 24 h established biofilm ([1]; XTT): 12 µg/mL
MBEC50 (50% of biomass disrupted) ([1]; crystal violet, 24 h established biofilm): 24 µg/mL
ATP leakage, luminescence (S. aureus MW2): increased luminescence levels

CN[C@H](CC(C)C)C(=O)N[C@H]1C(=O)N[C@@H](CC(N)=O)C(=O)N[C@H]2C(=O)N[C@H]3C(=O)N[C@H](C(=O)N[C@H](C(=O)O)c4cc(O)cc(O)c4-c4cc3ccc4O)[C@H](O)c3ccc(c(Cl)c3)Oc3cc2cc(c3O[C@@H]2O[C@H](CO)[C@@H](O)[C@H](O)[C@H]2O[C@H]2C[C@](C)(N)[C@H](O)[C@H](C)O2)Oc2ccc(cc2Cl)[C@H]1O [Vancomycin, reference compound]
Established biofilm, biomass (crystal violet), percentage of untreated ([1]; 4 μg/ml, replicate 1): 149.693
Established biofilm, live-cell viability (XTT), percentage of untreated ([1]; 4 μg/ml, replicate 1): 100.129
Established biofilm, biomass (crystal violet), percentage of untreated ([1]; 4 μg/ml, replicate 2): 84.8543
Established biofilm, live-cell viability (XTT), percentage of untreated ([1]; 4 μg/ml, replicate 2): 106.559
Established biofilm, biomass (crystal violet), percentage of untreated ([1]; 4 μg/ml, replicate 3): 49.5143
Established biofilm, live-cell viability (XTT), percentage of untreated ([1]; 4 μg/ml, replicate 3): 106.192
Established biofilm, biomass (crystal violet), percentage of untreated ([1]; 8 μg/ml, replicate 1): 88.3691
Established biofilm, live-cell viability (XTT), percentage of untreated ([1]; 8 μg/ml, replicate 1): 102.865
Established biofilm, live-cell viability (XTT), percentage of untreated ([1]; 8 μg/ml, replicate 2): 105.547
Established biofilm, biomass (crystal violet), percentage of untreated ([1]; 8 μg/ml, replicate 3): 88.3308
Established biofilm, live-cell viability (XTT), percentage of untreated ([1]; 8 μg/ml, replicate 3): 106.722
Established biofilm, biomass (crystal violet), percentage of untreated ([1]; 16 μg/ml, replicate 1): 138.471
Established biofilm, live-cell viability (XTT), percentage of untreated ([1]; 16 μg/ml, replicate 1): 64.3129
Established biofilm, biomass (crystal violet), percentage of untreated ([1]; 16 μg/ml, replicate 2): 273.773
Established biofilm, live-cell viability (XTT), percentage of untreated ([1]; 16 μg/ml, replicate 2): 78.7072
Established biofilm, biomass (crystal violet), percentage of untreated ([1]; 16 μg/ml, replicate 3): 273.774
Established biofilm, live-cell viability (XTT), percentage of untreated ([1]; 16 μg/ml, replicate 3): 47.5625
Established biofilm, biomass (crystal violet), percentage of untreated ([1]; 32 μg/ml, replicate 1): 98.1851
Established biofilm, live-cell viability (XTT), percentage of untreated ([1]; 32 μg/ml, replicate 1): 0.7061
Established biofilm, biomass (crystal violet), percentage of untreated ([1]; 32 μg/ml, replicate 2): 78.1697
Established biofilm, live-cell viability (XTT), percentage of untreated ([1]; 32 μg/ml, replicate 2): 1.691
Established biofilm, biomass (crystal violet), percentage of untreated ([1]; 32 μg/ml, replicate 3): 90.9509
Established biofilm, live-cell viability (XTT), percentage of untreated ([1]; 32 μg/ml, replicate 3): 6.084

Reference: publication PMC12165799, “Antimicrobial peptide developed with machine learning sequence optimization targets drug resistant Staphylococcus aureus in mice” (The Journal of Clinical Investigation, 2025)
